“Also recorded” adds a separate entry of the source.
Legend:
[1] = test system: RPMI 8392 cells; assay: Apoptosis by endonuclease-digested DNA (DNA laddering) on agarose gels; type: cell-based, human; details: RPMI 8392 cells
Method: The preferred method for testing the ability of AS ODN to induce apoptosis as determined by detection of endonuclease digested DNA on agarose gels employs the following sequence:
(2) Cells are grown to ≈10^6 /ml, collected by centrifugation for 5 min. at 300×g (1000 rpm in an IEC Model K centrifuge), resuspended in growth medium to 10^6 cells/ml, and placed in a 24 well tissue culture plate at 1 ml/well. The cell volumes are kept to a minimum (i.e., -1 ml), in order to reduce the amount of ODN needed. The fetal bovine serum used in the growth medium for this step is heat-inactivated at 65° C. for 1 hr. to minimize serum nuclease activity.
(4) Cells are then incubated for varying times, usually 1-3 days, following which the DNA is isolated.
The supernatant is aspirated down to ≈50 μl of volume and the cell pellet is resuspended in this remaining small volume.
(6) About 400 μl of cold cell lysis buffer (50 mM Tris-HCl, pH 7.5, 10 mM EDTA, 1% Triton X-100) is then added.
(9) The upper, aqueous phase is transferred to a fresh microfuge tube and 250 μl of phenol and 250 μl of chloroform are added, the mixture gently vortexed for 5 sec., and centrifuged at 16,650×g for 5 min.
(10) The upper, aqueous phase is again transferred to a fresh microfuge tube and 500 μl of chloroform is added, followed by gentle vortexing and centrifugation at 16,650×g for 3 min.
(11) The upper, aqueous phase is again transferred to a fresh microfuge tube, 3M sodium acetate (pH 5.2) is added to a final concentration of 0.3M, and 2.5 volumes of ice cold 100% ethanol is added. The solution is left overnight at -20° C. to precipitate the DNA.
(12) The DNA is collected by centrifugation at 16,650×g for 15 min., the supernatant decanted, and the pellet air dried for ≈30-60 min. at room temperature. The DNA pellet is then dissolved in 50 μl of pH 8.0 TE buffer at room temperature overnight.
(13) One μl of a 4 mg/ml solution of DNase-free RNase A is then added to the DNA and incubation is carried out at 37° C. for 30 min. This step is necessary to prevent contaminating RNA from obscuring the gel.
(14) Thirty μl of DNA solution is then mixed with 6 μl of 6× loading buffer and run on a 2% agarose gel, containing 0.5 μg/ml ethidium bromide, in 0.5× TBE buffer (45 mM Tris-borate, 1 mM EDTA, pH 8.0) at ≈50 V for ≈1.5 hr. The 6× loading buffer used is 0.25% xylene cyanol and 30% glycerol. The use of bromophenol blue is omitted for this analysis because it tends to obscure the visualization of the DNA ladder pattern.
(15) The gel is then visualized and photographed under UV light.
The effect of pharmacological inhibition of each of these PDE activities on induction of apoptosis in RPMI 8392 cells was tested, using the appearance of oligonucleosome length fragments of endonuclease digested DNA as a measure of apoptosis.
Markers (lane 1 in both gels) are 1 kb DNA ladder size markers from GIBCO/BRL.
Cells (10^6) were collected by centrifugation at 670×g for 5 min. The cell pellets were rinsed once with 0.2M dibasic sodium phosphate and lysed in 300 μl of lysis buffer (50 mM Tris/HCl pH 7.5, 10 mM EDTA, 1% V/V Triton X-100) for 20 min on ice. Proteinase K was added to 0.5 mg/ml and DNase-free RNase was added to 50 μg/ml and the extract incubated at 37° C. for 1 hr. DNA was then extracted in phenol/chloroform (1:1) and chloroform (1:1) and precipitated in 2.5 volumes of ethanol. The extracted DNA was electrophoresed on 2% agarose gels, the gels stained with 0.5 μg/ml ethidium bromide and photographed under UV light.
Experiments were conducted to determine if inhibition of the expression of the gene for PDE1B1 could induce apoptosis.

[2] = test system: PDE1 activity in RPMI 8392 cells; assay: CaM-stimulated PDE (PDE1) activity in cells after ODN treatment; type: cell-based, human; details: for PDE1 (CaM-stimulated PDE) activity: 3 days
Method: Cells were grown to a density of about 10^6 /ml, collected by centrifugation (1200×g, 10 min), resuspended in I ml of homogenization buffer containing 40 mM Tris/HCl (pH 7.5), 1 mM EDTA, 1 mM DTT, 35 μg/ml phenylmethylsulfonyl fluoride, 15 mM benzamidine, 1 μg/ml leupeptin, 1 μg/ml antipain, 1 μg/ml pepstatin, and 1 μg/ml aprotinin, homogenized with 20 strokes of a Dounce glass-on-glasshomogenizer and assayed for PDE activity, using 1 μM cAMP as substrate, as described previously. Data points represent the means of 2 to 10 separate determinations. […] Control activity was 1.66±0.14 pmol/min/10^6 cells (mean±S.E.M.; n=8) in the absence and 4.80±0.42 pmol/min/10^6 cells (mean±S.E.M.; n=10) in the presence of Ca^2+ and calmodulin.
RPMI 8392 cells were grown and treated with AS and NS ODN as described in the legend to FIG. 2. Cells were then collected at daily intervals and assayed for PDE activity as described in FIG. 10. Results represent the mean±the range of duplicate determinations. Control activities (pmol/min/10^6 cells) were 1.17, 1.34, and 1.50 in the absence, and 3.83, 4.34, and 3.79 in the presence of Ca^2+ and calmodulin at days 1, 2, and 3, respectively.

| Substance | Induction of apoptosis (DNA fragmentation) ([1]; 10 μM ODN, 3 days) | Induction of apoptosis (DNA fragmentation) ([1]; 30 μM ODN, 2 days (48 hr)) | Induction of apoptosis (DNA fragmentation) ([1]; 30 μM ODN, 3 days) | PDE1 activity ([2]; 30 μM ODN, 2 days) | PDE1 (CaM-stimulated PDE) activity ([2]; 10 or 30 μM ODN) | Induction of apoptosis (DNA fragmentation) ([1]; any concentration tested (0.3-30 μM), 1, 2 and 3 days) | PDE1 activity ([2]; 10 or 30 μM ODN, time not specified) |
| --- | --- | --- | --- | --- | --- | --- | --- |
| 5'-GGACAGCTCCATGCTCAG-3' (phosphorothioate, further chemistry not given here) [AS ODN, 18 nt phosphorothioate antisense oligodeoxynucleotide targeted against the translation initiation region of PDE1B1] | induced apoptosis | clearly induced apoptosis | induced apoptosis | noticeably diminished | undetectable; also recorded: disappear completely |  |  |
| 5'-TACGTGAGGCACCTACGC-3' (phosphorothioate, further chemistry not given here) [NS ODN, control phosphorothioate nonsense ODN, same base composition as the AS ODN in random, scrambled order] |  | did not |  |  | relatively unchanged | no effect | little or no effect |

From patent US5885834A, “Antisense oligodeoxynucleotide against phosphodiesterase” (priority 1997, dated 1999)
